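Test compounds were applied to cells in 96-well plates for 48 hours at 5 doses. Definition used: TGI = concentration required for complete inhibition of growth.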
Key:
Assay in all cases: inhibition of tumour cell growth, NCI panel, 48 h
UO-31 renal = tested on: UO-31 renal
UACC-62 melanoma = tested on: UACC-62 melanoma
A549 NSCLC = tested on: A549 NSCLC
HCT-116 colon = tested on: HCT-116 colon
MCF7 breast = tested on: MCF7 breast
HCT-15 colon = tested on: HCT-15 colon
786-0 renal = tested on: 786-0 renal
SNB-19 CNS = tested on: SNB-19 CNS
HOP-62 NSCLC = tested on: HOP-62 NSCLC
NCI-H23 lung = tested on: NCI-H23 lung

Compound | TGI (UO-31 renal) [µM] | TGI (UACC-62 melanoma) [µM] | TGI (A549 NSCLC) [µM] | TGI (HCT-116 colon) [µM] | TGI (MCF7 breast) [µM] | TGI (HCT-15 colon) [µM] | TGI (786-0 renal) [µM] | TGI (SNB-19 CNS) [µM] | TGI (HOP-62 NSCLC) [µM] | TGI (NCI-H23 lung) [µM]
CC(C)CC1c2[nH]c3ccccc3c2C[C@H]2C(=O)NC(COC(C)(C)C)C(=O)N12 (some centres not stated) | > 100 | 49.5 | > 100 | 37.9 | > 100 | 80.2 | 98.5 | > 100 | 79.3 | 91.3
Cc1ccc(S(=O)(=O)NC(=O)NS(=O)(=O)O)cc1 | > 100 | > 100 | > 100 | > 100 | > 100 | > 100 | > 100 | > 100 | > 100 | > 100
O=C(CCCN1CCc2[nH]c3cc(F)ccc3c2C1)c1ccc(F)cc1 |  | 25.5 | 29.5 | 24.2 | 18.3 | 31.3 | 26.6 | > 100 | 29.8 | 28
CN1C(=O)[C@@]2(C=CC3(CC2)OCCO3)c2ccccc21 | > 50 | > 50 | > 50 | > 50 | > 50 | > 50 | > 50 | > 50 | > 50 | > 50
CC(=O)Oc1ccc2c(c1)c1c(OC(C)=O)c3ccccc3c(OC(C)=O)c1n2Cc1cccc(C)c1 | > 100 | > 100 | > 100 | > 100 | > 100 | > 100 | > 100 | > 100 | 67.3 | > 100
CCC1(O)CN(CCOC)[C@H]2C[C@@H]1C(=O)c1[nH]c3ccccc3c12 (some centres not stated) | > 100 |  | > 100 | > 100 | > 100 | > 100 | > 100 | > 100 | > 100 | > 100
CSC1(SC)CCCCCCCCCCC1 | > 100 | > 100 | > 100 | 31.4 | 38.1 | > 100 | > 100 | > 100 | > 100 | > 100
COc1ccc(C=O)cc1Oc1ccc(C[C@H]2c3c(cc(OC)c4c3Oc3cc5c(cc3O4)CCN(C)C5=O)CCN2C)cc1 | 14.6 |  | > 50 | 15 | 22.5 | 27.5 | 16.3 | 30.2 | 15.1 | 16
COC(=O)c1cc2c3c(c(C(C)=O)c(OC)c2[nH]1)NCC3 | > 50 | > 50 |  | > 50 | > 50 | > 50 | > 50 | > 50 | > 50 | > 50
C/C=C\C(CC(=O)O)CC(=O)NCCC1CN(S(=O)(=O)C(F)(F)F)c2ccccc21 (configuration not stated) | > 100 | > 100 | > 100 | > 100 | > 100 | > 100 | > 100 | > 100 | > 100 | > 100
Cn1c(=O)c2[nH]c(N/N=C3/SCC(=O)N3Cc3ccccc3)nc2n(C)c1=O | > 100 | > 100 | > 100 | > 100 | 45.8 | > 100 | 88.4 | > 100 | > 100 | > 100
CCOC(=O)C(Cc1c(-c2[nH]c3ccccc3c2CC(NC(=O)CNC(C)=O)C(=O)OCC)[nH]c2ccccc12)NC(=O)CNC(C)=O (configuration not stated) | > 100 | > 100 | > 100 | > 100 |  | > 100 |  | > 100 | > 100 | > 100
Cc1nn(C(=O)c2ccccc2O)c2c1C(c1ccc(O)cc1)SC(N)=N2 (configuration not stated) | > 10 | > 10 | > 10 | > 3.32 | > 10 | > 10 | > 10 | > 10 | > 10 | > 10
CSc1nc2c(ncn2C2OCC(O)C(O)C2O)c(=O)[nH]1 (configuration not stated) | > 100 | > 100 | > 100 | > 100 | > 100 | > 100 |  | > 100 | > 100 | > 100
CCOC(=O)Cc1nc2c(=O)[nH]cnc2n1C1OC(COC(C)=O)C(OC(C)=O)C1OC(C)=O (configuration not stated) | > 100 | > 100 | > 100 | > 100 | > 100 | > 100 | > 100 | > 100 | > 100 | > 100
CCOc1cc(C=O)ccc1O | > 100 |  | > 100 | > 100 | > 100 | > 100 | > 100 | > 100 | > 100 | > 100
O=C(O)CCCc1nc2c(n1-c1ccccc1)C(=O)c1ccccc1C2=O | > 100 | > 100 | > 100 | > 100 | > 100 | > 100 | > 100 | > 100 |  | > 100
COC(=O)CNC(=O)/C=C/[C@H](O[Si](C)(C)C(C)(C)C)[C@H](/C=C/C(=O)NCC(=O)OC)O[Si](C)(C)C(C)(C)C | > 25 | > 25 | > 25 | > 25 | > 25 | > 25 | > 25 | > 25 | > 25 | > 25
COc1ccc([C@@]23CCC(=O)C[C@@H]2N(C)CC3)cc1OC | > 100 | > 100 | > 100 |  | > 100 | > 100 | > 100 | > 100 | > 100 | > 100
COc1cc2cc3c4c(cc(OC)c(OC)c4c2cc1OC)CCN3C(=O)OCCBr | > 100 | > 100 | > 100 | > 100 |  | > 100 | > 100 | > 100 |  | > 100
COC(=O)CCc1ccc2c(c1)CC1(C2)Cc2ccc(CCC(=O)OC)cc2C1 | > 100 | > 100 | > 100 | > 100 | > 100 | > 100 | > 100 |  | > 100 | > 100

From PubChem BioAssay (NCI)
